According to ChEMBL document CHEMBL1201862, “PubChem BioAssay data set” (2004):
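48-hour exposure; five concentrations; linearly interpolated endpoints. Here, GI50 denotes the concentration required for 50% inhibition of growth.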 The source made the active and inactive calls. Cut-off read from the data, not from the text of the source: active = GI50 up to about 1.1 µM and inactive = higher.

Key:
Experiment in all cases: inhibition of tumour cell growth, NCI panel, 48 h
NCI-H226 = tested on: NCI-H226
786-0 = tested on: 786-0
CCRF-CEM = tested on: CCRF-CEM
RXF 393 = tested on: RXF 393
K562 = tested on: K562
EKVX = tested on: EKVX
HT-29 = tested on: HT-29
KM12 = tested on: KM12
A549 = tested on: A549
OVCAR-5 = tested on: OVCAR-5
SK-MEL-2 = tested on: SK-MEL-2
SF-539 = tested on: SF-539
SF-295 = tested on: SF-295
NCI-H460 = tested on: NCI-H460
SNB-19 = tested on: SNB-19
TK-10 = tested on: TK-10
DU-145 = tested on: DU-145
LOX IMVI = tested on: LOX IMVI
UO-31 = tested on: UO-31
T47D = tested on: T47D

O=C(NCCCCCCCCNC(=O)c1cccc2ccccc12)c1cccc2ccccc12
GI50 (NCI-H226): 8.43 µM (inactive) | GI50 (786-0): 4.89 µM (inactive) | GI50 (CCRF-CEM): > 100 µM (inactive) | GI50 (RXF 393): 2.25 µM (inactive) | GI50 (K562): > 100 µM (inactive) | GI50 (EKVX): 19.5 µM (inactive) | GI50 (HT-29): > 100 µM (inactive) | GI50 (KM12): > 100 µM (inactive) | GI50 (A549): 34.2 µM (inactive) | GI50 (OVCAR-5): > 100 µM (inactive) | GI50 (SK-MEL-2): 37.2 µM (inactive) | GI50 (SF-539): 4.94 µM (inactive) | GI50 (SF-295): 12.4 µM (inactive) | GI50 (NCI-H460): 65.3 µM (inactive) | GI50 (SNB-19): 20.1 µM (inactive) | GI50 (TK-10): 12.1 µM (inactive) | GI50 (DU-145): > 100 µM (inactive) | GI50 (LOX IMVI): > 77.8 µM (inactive) | GI50 (UO-31): 6.3 µM (inactive)

CCCCC[C@H]1CCCCCCCCCC(=O)OC2C(O[C@@H]3OC(C)[C@H](OC(=O)[C@@H](C)CC)C(O[C@@H]4OC(C)[C@H](O)C(O)[C@@H]4O)[C@@H]3OC(=O)[C@H](C)CC)[C@H](OC3C(O)[C@@H](O)C(C)O[C@H]3O1)OC(CO)[C@H]2O (stereo not given in full)
GI50 (786-0): 17.4 µM (inactive) | GI50 (CCRF-CEM): 18.6 µM (inactive) | GI50 (K562): 18.8 µM (inactive) | GI50 (T47D): 17 µM (inactive) | GI50 (EKVX): 19.2 µM (inactive) | GI50 (HT-29): 16.7 µM (inactive) | GI50 (KM12): 20 µM (inactive) | GI50 (A549): 16.8 µM (inactive) | GI50 (OVCAR-5): 16.7 µM (inactive) | GI50 (SK-MEL-2): 16.4 µM (inactive) | GI50 (SF-295): 18 µM (inactive) | GI50 (NCI-H460): 18.2 µM (inactive) | GI50 (SNB-19): 16.1 µM (inactive) | GI50 (TK-10): 20.1 µM (inactive) | GI50 (DU-145): 16.2 µM (inactive) | GI50 (LOX IMVI): 17 µM (inactive) | GI50 (UO-31): 16.1 µM (inactive)

O=C1CC(Sc2nc3ccc(I)cc3c(=O)n2Cc2ccccc2)C(=O)NN1 (stereo not given)
GI50 (NCI-H226): 5.89 µM (inactive) | GI50 (786-0): 15.1 µM (inactive) | GI50 (CCRF-CEM): 8.28 µM (inactive) | GI50 (K562): 11.6 µM (inactive) | GI50 (T47D): 15.2 µM (inactive) | GI50 (EKVX): 15.8 µM (inactive) | GI50 (HT-29): 18.6 µM (inactive) | GI50 (KM12): 17.2 µM (inactive) | GI50 (A549): 28.4 µM (inactive) | GI50 (OVCAR-5): 17.9 µM (inactive) | GI50 (SK-MEL-2): 17.1 µM (inactive) | GI50 (SF-539): 18.2 µM (inactive) | GI50 (SF-295): 18.2 µM (inactive) | GI50 (NCI-H460): 22.8 µM (inactive) | GI50 (SNB-19): 19.3 µM (inactive) | GI50 (TK-10): 16.8 µM (inactive) | GI50 (DU-145): 20 µM (inactive) | GI50 (LOX IMVI): 3.18 µM (inactive) | GI50 (UO-31): 0.55 µM (active)

O=C1OC[C@@H]2Cc3c([nH]c4ccccc34)[C@@H](c3cc(O)c(O)c(O)c3)N12
GI50 (NCI-H226): 13.5 µM (inactive) | GI50 (786-0): 20.6 µM (inactive) | GI50 (CCRF-CEM): 12.6 µM (inactive) | GI50 (RXF 393): 18.9 µM (inactive) | GI50 (K562): 3.91 µM (inactive) | GI50 (T47D): 37 µM (inactive) | GI50 (EKVX): 44.5 µM (inactive) | GI50 (HT-29): 31 µM (inactive) | GI50 (KM12): 44.5 µM (inactive) | GI50 (A549): > 100 µM (inactive) | GI50 (OVCAR-5): 19.7 µM (inactive) | GI50 (SK-MEL-2): 3.14 µM (inactive) | GI50 (SF-539): 18.9 µM (inactive) | GI50 (SF-295): 2.57 µM (inactive) | GI50 (NCI-H460): 37.8 µM (inactive) | GI50 (SNB-19): 24 µM (inactive) | GI50 (TK-10): 41.5 µM (inactive) | GI50 (DU-145): 68.2 µM (inactive) | GI50 (UO-31): 27.3 µM (inactive)

Cc1cc(N(CCC#N)CCC#N)ccc1C(/N=N/c1ccc(Cl)cc1)=N\NC(=O)c1ccccc1
GI50 (NCI-H226): 31.3 µM (inactive) | GI50 (786-0): 34.6 µM (inactive) | GI50 (CCRF-CEM): 31.5 µM (inactive) | GI50 (RXF 393): 49.2 µM (inactive) | GI50 (K562): 14.9 µM (inactive) | GI50 (T47D): 24.5 µM (inactive) | GI50 (EKVX): 37.9 µM (inactive) | GI50 (HT-29): 20.5 µM (inactive) | GI50 (KM12): 20.2 µM (inactive) | GI50 (A549): 42.7 µM (inactive) | GI50 (OVCAR-5): > 100 µM (inactive) | GI50 (SK-MEL-2): 84.1 µM (inactive) | GI50 (SF-539): 7.62 µM (inactive) | GI50 (SF-295): 9.23 µM (inactive) | GI50 (NCI-H460): 39.7 µM (inactive) | GI50 (SNB-19): 41.9 µM (inactive) | GI50 (TK-10): 60.5 µM (inactive) | GI50 (DU-145): 44.7 µM (inactive) | GI50 (UO-31): 67.6 µM (inactive)

COC(O)C(=O)c1c2c(cc3c1CCC3)CCCC2 (stereo not given)
GI50 (NCI-H226): 16.5 µM (inactive) | GI50 (786-0): 14.1 µM (inactive) | GI50 (CCRF-CEM): 2.39 µM (inactive) | GI50 (K562): 3.07 µM (inactive) | GI50 (T47D): 6.28 µM (inactive) | GI50 (EKVX): 16.7 µM (inactive) | GI50 (HT-29): 2.69 µM (inactive) | GI50 (KM12): 8.59 µM (inactive) | GI50 (A549): 18.6 µM (inactive) | GI50 (OVCAR-5): 18.1 µM (inactive) | GI50 (SK-MEL-2): 11.4 µM (inactive) | GI50 (SF-539): 4.32 µM (inactive) | GI50 (SF-295): 10.5 µM (inactive) | GI50 (NCI-H460): 7.5 µM (inactive) | GI50 (SNB-19): 17.2 µM (inactive) | GI50 (TK-10): 16.3 µM (inactive) | GI50 (DU-145): 14.1 µM (inactive) | GI50 (LOX IMVI): 1.99 µM (inactive) | GI50 (UO-31): 17.7 µM (inactive)

COc1ccc(-c2oc3cc(OC(C)=O)cc(OC(C)=O)c3c(=O)c2OC)cc1
GI50 (CCRF-CEM): 18.2 µM (inactive) | GI50 (K562): 9.77 µM (inactive) | GI50 (T47D): 19.7 µM (inactive) | GI50 (EKVX): 13.9 µM (inactive) | GI50 (HT-29): 16.7 µM (inactive) | GI50 (A549): 20.7 µM (inactive) | GI50 (OVCAR-5): 23.3 µM (inactive) | GI50 (SF-295): 15.9 µM (inactive) | GI50 (NCI-H460): 16.9 µM (inactive) | GI50 (SNB-19): 19 µM (inactive) | GI50 (TK-10): 21.8 µM (inactive) | GI50 (DU-145): 15.5 µM (inactive) | GI50 (LOX IMVI): 14.5 µM (inactive) | GI50 (UO-31): 19.6 µM (inactive)

N#Cc1c(-c2ccc(Cl)cc2)cc(-c2nc3ccccc3[nH]2)nc1N
GI50 (NCI-H226): 10.8 µM (inactive) | GI50 (786-0): 11.3 µM (inactive) | GI50 (CCRF-CEM): 5.57 µM (inactive) | GI50 (K562): 6.71 µM (inactive) | GI50 (T47D): 3.12 µM (inactive) | GI50 (EKVX): 11 µM (inactive) | GI50 (HT-29): 9.16 µM (inactive) | GI50 (KM12): 10 µM (inactive) | GI50 (A549): 5.92 µM (inactive) | GI50 (OVCAR-5): 19.5 µM (inactive) | GI50 (SK-MEL-2): 12.6 µM (inactive) | GI50 (SF-539): 15.3 µM (inactive) | GI50 (SF-295): 10.7 µM (inactive) | GI50 (NCI-H460): 7.19 µM (inactive) | GI50 (SNB-19): 12.1 µM (inactive) | GI50 (TK-10): 10.1 µM (inactive) | GI50 (DU-145): 6.98 µM (inactive) | GI50 (LOX IMVI): 10.2 µM (inactive) | GI50 (UO-31): 9.1 µM (inactive)
